# Laboratory results from patent US8952043B2, “Benzoxepin PI3K inhibitor compounds and methods of use” (Genentech, Inc., priority 2009, dated 2015).
# Key:
# [1] = biological target: T1, p110 alpha PI3K (Homo sapiens, UniProt P42336); assay: p110α (alpha) PI3K binding assay (fluorescence polarization); conditions: read-out: IC50 (inhibition of PI3K alpha, p110 alpha)
# T1 construct: purchased Upstate Cell Signaling Solutions, Charlottesville, Va
# Experimental: Determination of the PI3 kinase activity of a Formula I compound is possible by a number of direct and indirect detection methods. Certain exemplary compounds described herein were assayed for their p110α (alpha), and other isoform, PI3K binding activity (Example 601) and in vitro activity against tumor cells (Example 602).
# Binding Assays: Initial polarization experiments were performed on an Analyst HT 96-384 (Molecular Devices Corp, Sunnyvale, Calif.). […] After an incubation time of 30 minutes at room temperature, the reactions were stopped by the addition of GRP-1 and PIP3-TAMRA probe (Echelon-Inc., Salt Lake City, Utah.) 100 nM and 5 nM final concentrations respectively. Read with standard cut-off filters for the rhodamine fluorophore (λex=530 nm; λem=590 nm) in 384-well black low volume Proxiplates (PerkinElmer, Wellesley, Mass.) Fluorescence polarization values were plotted as a function of the protein concentration, and the EC50 values were obtained by fitting the data to a 4-parameter equation using KaleidaGraph software (Synergy software, Reading, Pa.). This experiment also establishes the appropriate protein concentration to use in subsequent competition experiments with inhibitors.
# Inhibitor IC50 values were determined by addition of the 0.04 mg/mL p110 alpha PI3K (final concentration) combined with PIP2 ([…] final concentration) to wells containing 1:3 serial dilutions of the antagonists in a final concentration of […] ATP (Cell Signaling Technology, Inc., Danvers, Mass.) in the polarization buffer. After an incubation time of 30 minutes at room temperature, the reactions were stopped by the addition of GRP-1 and PIP3-TAMRA probe (Echelon-Inc., Salt Lake City, Utah.) 100 nM and 5 nM final concentrations respectively. Read with standard cut-off filters for the rhodamine fluorophore (λex=530 nm; λem=590 nm) in 384-well black low volume proxi plates (PerkinElmer, Wellesley, Mass.) Fluorescence polarization values were plotted as a function of the antagonist concentration, and the IC50 values were obtained by fitting the data to a 4-parameter equation in Assay Explorer software (MDL, San Ramon, Calif.).
# Alternatively, inhibition of PI3K was determined in a radiometric assay using purified, recombinant enzyme and ATP at a concentration of 1 uM. The Formula I compound was serially diluted in 100% DMSO. The kinase reaction was incubated for 1 hr at room temperature, and the reaction was terminated by the addition of PBS. IC50 values were subsequently determined using sigmoidal dose-response curve fit (variable slope).
# [2] = test system: AU565; assay: CellTiter-Glo cell proliferation assay, AU565; format: cell-based; conditions: Homo sapiens, Breast, mutation status WT
# Experimental: (§1) The in vitro potency of Formula I exemplary compounds was measured by the cell proliferation assay, CellTiter-Glo® Luminescent Cell Viability Assay, commercially available from Promega Corp., Madison, Wis. (Example 602). This homogeneous assay method is based on the recombinant expression of Coleoptera luciferase (U.S. Pat. Nos. 5,583,024; 5,674,713; 5,700,670) and determines the number of viable cells in culture based on quantitation of the ATP present, an indicator of metabolically active cells (Crouch et al (1993) J. Immunol. Meth. 160:81-88; U.S. Pat. No. 6,602,677). The CellTiter-Glo® Assay was conducted in 96 or 384 well format, making it amenable to automated high-throughput screening (HTS) (Cree et al (1995) AntiCancer Drugs 6:398-404). The homogeneous assay procedure involves adding the single reagent (CellTiter-Glo® Reagent) directly to cells cultured in serum-supplemented medium. Cell washing, removal of medium and multiple pipetting steps are not required. The system detects as few as 15 cells/well in a 384-well format in 10 minutes after adding reagent and mixing.
# (§2) Efficacy of Formula I compounds were measured by a cell proliferation assay employing the following protocol (Promega Corp. Technical Bulletin TB288; Mendoza et al (2002) Cancer Res. 62:5485-5488):
# (§3) 1. An aliquot of 100 μl of cell culture containing about 10^4 cells (PC3, Detroit562, or MDAMB361.1) in medium was deposited in each well of a 384-well, opaque-walled plate.
# (§4) 2. Control wells were prepared containing medium and without cells.
# (§5) 3. The compound was added to the experimental wells and incubated for 3-5 days.
# (§6) 4. The plates were equilibrated to room temperature for approximately 30 minutes.
# (§7) 5. A volume of CellTiter-Glo Reagent equal to the volume of cell culture medium present in each well was added.
# (§8) 6. The contents were mixed for 2 minutes on an orbital shaker to induce cell lysis.
# (§9) 7. The plate was incubated at room temperature for 10 minutes to stabilize the luminescence signal.
# (§10) 8. Luminescence was recorded and reported in graphs as RLU=relative luminescence units.
# (§11) Alternatively, cells were seeded at optimal density in a 96 well plate and incubated for 4 days in the presence of test compound. Alamar Blue™ was subsequently added to the assay medium, and cells were incubated for 6 hr before reading at 544 nm excitation, 590 nm emission. EC50 values were calculated using a sigmoidal dose response curve fit. […] It is commonly used as a measure of drug potency.
# (§12) The anti-proliferative effects of Formula I exemplary compounds were measured by the CellTiter-Glo® Assay against various tumor cell lines, including the following: […]
# [3] = test system: EVSA-T; assay: CellTiter-Glo cell proliferation assay, EVSA-T; format: cell-based; conditions: Homo sapiens, Breast, mutation status PTEN
# Experimental: as §1, §2, §3, §4, §5, §6, §7, §8, §9, §10, §11, §12
# [4] = test system: MDA-MB-361.1; assay: CellTiter-Glo cell proliferation assay, MDA-MB-361.1; format: cell-based; conditions: Breast, mutation status PI3K
# Experimental: as §1, §2, §3, §4, §5, §6, §7, §8, §9, §10, §11, §12
# [5] = test system: BT474; assay: CellTiter-Glo cell proliferation assay, BT474; format: cell-based; conditions: Homo sapiens, BT-474, Breast, mutation status PI3K(amped)
# Experimental: as §1, §2
# 1. […]
# as §9, §10
# (§13) Alternatively, cells were seeded at optimal density in a 96 well plate and incubated for 4 days in the presence of test compound. Alamar Blue™ was subsequently added to the assay medium, and cells were incubated for 6 hr before reading at 544 nm excitation, 590 nm emission. EC50 values were calculated using a sigmoidal dose response curve fit. […]
# as §12
# [6] = test system: HCC1954; assay: CellTiter-Glo cell proliferation assay, HCC1954; format: cell-based; conditions: Homo sapiens, Breast, mutation status PI3K
# Experimental: as §1, §2
# 1. […]
# as §9, §10, §13, §12
# [7] = test system: KPL4; assay: CellTiter-Glo cell proliferation assay, KPL4; format: cell-based; conditions: Breast, mutation status PI3K
# Experimental: as §1, §2
# 1. […]
# as §9, §10, §13, §12
# [8] = test system: MFM223; assay: CellTiter-Glo cell proliferation assay, MFM223; format: cell-based; conditions: Homo sapiens, MFM-223, Breast, mutation status PI3K
# Experimental: as §1, §2
# 1. […]
# as §9, §10, §13, §12
# [9] = test system: T47D; assay: CellTiter-Glo cell proliferation assay, T47D; format: cell-based; conditions: Homo sapiens, Breast, mutation status PI3K
# Experimental: as §1, §2
# 1. […]
# as §9, §10, §13, §12
# [10] = test system: KM12; assay: CellTiter-Glo cell proliferation assay, KM12; format: cell-based; conditions: Homo sapiens, Colon, mutation status PTEN
# Experimental: (§14) The in vitro potency of Formula I exemplary compounds was measured by the cell proliferation assay, CellTiter-Glo® Luminescent Cell Viability Assay, commercially available from Promega Corp., Madison, Wis. (Example 602). This homogeneous assay method is based on the recombinant expression of Coleoptera luciferase (U.S. Pat. Nos. 5,583,024; 5,674,713; 5,700,670) and determines the number of viable cells in culture based on quantitation of the ATP present, an indicator of metabolically active cells (Crouch et al (1993) J. Immunol. Meth. 160:81-88; U.S. Pat. No. 6,602,677). […]
# (§15) Efficacy of Formula I compounds were measured by a cell proliferation assay employing the following protocol (Promega Corp. Technical Bulletin TB288; Mendoza et al (2002) Cancer Res. 62:5485-5488): […]
# as §9, §10, §13
# [11] = test system: MDST8; assay: CellTiter-Glo cell proliferation assay, MDST8; format: cell-based; conditions: Colon, mutation status PTEN
# Experimental: as §14, §15, §9, §10, §13
# [12] = test system: U87MG; assay: CellTiter-Glo cell proliferation assay, U87MG; format: cell-based; conditions: Homo sapiens, U-87 MG, Glioma, mutation status PTEN
# Experimental: as §14, §15, §9, §10, §13
# [13] = test system: H2122; assay: CellTiter-Glo cell proliferation assay, H2122; format: cell-based; conditions: Homo sapiens, NCI-H2122, Lung(NSCLC), mutation status K-RAS
# Experimental: as §1, §2
# 1. […]
# as §9, §10, §13, §12
# [14] = test system: H520; assay: CellTiter-Glo cell proliferation assay, H520; format: cell-based; conditions: Homo sapiens, NCI-H520, Lung(NSCLC), mutation status PTEN
# Experimental: as §14, §15, §9, §10, §13
# [15] = test system: PC3; assay: CellTiter-Glo cell proliferation assay, PC3; format: cell-based; conditions: Homo sapiens, PC-3, Prostate, mutation status PTEN
# Experimental: as §1, §2
# 1. […]
# as §9, §10, §13, §12
# T1 sequence (P42336 whole entry): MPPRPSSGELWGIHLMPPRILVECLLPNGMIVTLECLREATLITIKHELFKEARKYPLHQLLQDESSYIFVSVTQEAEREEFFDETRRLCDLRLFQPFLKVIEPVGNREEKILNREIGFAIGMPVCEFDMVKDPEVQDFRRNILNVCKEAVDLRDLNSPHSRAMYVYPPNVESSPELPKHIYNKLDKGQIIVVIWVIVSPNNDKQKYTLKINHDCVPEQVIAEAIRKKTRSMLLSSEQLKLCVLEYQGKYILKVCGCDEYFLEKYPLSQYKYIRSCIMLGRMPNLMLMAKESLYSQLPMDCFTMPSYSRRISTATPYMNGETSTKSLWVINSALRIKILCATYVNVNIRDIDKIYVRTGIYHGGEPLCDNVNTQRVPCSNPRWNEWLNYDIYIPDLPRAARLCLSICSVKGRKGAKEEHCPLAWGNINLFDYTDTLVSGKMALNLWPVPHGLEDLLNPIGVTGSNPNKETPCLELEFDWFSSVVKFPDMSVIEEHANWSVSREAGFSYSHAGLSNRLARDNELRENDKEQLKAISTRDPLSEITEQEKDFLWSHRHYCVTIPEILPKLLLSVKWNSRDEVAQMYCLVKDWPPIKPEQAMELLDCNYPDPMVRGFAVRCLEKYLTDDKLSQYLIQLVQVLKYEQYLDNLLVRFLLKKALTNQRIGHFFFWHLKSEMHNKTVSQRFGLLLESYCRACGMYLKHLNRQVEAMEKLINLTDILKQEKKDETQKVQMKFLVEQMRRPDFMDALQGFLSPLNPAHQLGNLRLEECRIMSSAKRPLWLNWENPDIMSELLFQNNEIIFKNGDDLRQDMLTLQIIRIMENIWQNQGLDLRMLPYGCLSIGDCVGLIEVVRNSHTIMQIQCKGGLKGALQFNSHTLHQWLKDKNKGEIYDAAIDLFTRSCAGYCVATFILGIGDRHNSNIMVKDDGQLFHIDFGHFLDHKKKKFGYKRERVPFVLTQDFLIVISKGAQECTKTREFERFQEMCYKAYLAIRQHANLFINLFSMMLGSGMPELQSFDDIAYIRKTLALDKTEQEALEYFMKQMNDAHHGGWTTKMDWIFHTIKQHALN
# T1 sequence (P27986 whole entry partner): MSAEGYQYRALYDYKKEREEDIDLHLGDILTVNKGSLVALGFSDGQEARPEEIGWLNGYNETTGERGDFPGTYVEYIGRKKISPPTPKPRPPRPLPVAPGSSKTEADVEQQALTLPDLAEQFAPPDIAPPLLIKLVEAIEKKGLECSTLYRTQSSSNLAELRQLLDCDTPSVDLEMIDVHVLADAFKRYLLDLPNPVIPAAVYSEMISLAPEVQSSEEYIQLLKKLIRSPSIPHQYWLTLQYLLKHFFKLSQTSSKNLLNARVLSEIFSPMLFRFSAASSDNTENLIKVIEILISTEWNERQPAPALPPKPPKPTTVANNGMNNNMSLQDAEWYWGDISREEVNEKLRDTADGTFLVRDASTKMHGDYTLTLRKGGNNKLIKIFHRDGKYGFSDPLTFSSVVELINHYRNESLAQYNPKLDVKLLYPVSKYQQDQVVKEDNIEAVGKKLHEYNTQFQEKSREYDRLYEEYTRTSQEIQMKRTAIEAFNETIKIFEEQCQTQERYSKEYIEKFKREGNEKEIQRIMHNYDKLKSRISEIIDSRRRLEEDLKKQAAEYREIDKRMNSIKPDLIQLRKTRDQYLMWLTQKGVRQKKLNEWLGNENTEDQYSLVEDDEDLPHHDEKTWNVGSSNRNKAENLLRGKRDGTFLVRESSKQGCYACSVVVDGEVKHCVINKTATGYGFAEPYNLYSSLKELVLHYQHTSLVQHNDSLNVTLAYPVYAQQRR
structure (smiles),measurement,setting,value
"O=C(c1nc2c(s1)CCOc1cc(-c3cn[nH]c3)ccc1-2)N1CCC[C@@H]1CO [compound 101, ((R)-2-Hydroxymethyl-pyrrolidin-1-yl)-[8-(1H-pyrazol-4-yl)-4,5-dihydro-6-oxa-3-thia-1-aza-benzo[e]azulen-2-yl]-methanone]",IC50,[1],31 nM
"CC(C)N(C)C(=O)c1nc2c(s1)CCOc1cc(-c3cn[nH]c3)ccc1-2 [compound 102, 8-(1H-Pyrazol-4-yl)-4,5-dihydro-6-oxa-3-thia-1-aza-benzo[e]azulene-2-carboxylic acid isopropyl-methyl-amide]",IC50,[1],5.1 nM
"CC(C)N(CCO)C(=O)c1nc2c(s1)CCOc1cc(-c3cn[nH]c3)ccc1-2 [compound 103, 8-(1H-Pyrazol-4-yl)-4,5-dihydro-6-oxa-3-thia-1-aza-benzo[e]azulene-2-carboxylic acid (2-hydroxy-ethyl)-isopropyl-amide]",IC50,[1],1.8 nM
"O=C(NCc1ccc2c(c1)OCCc1sc(-c3ncnn3CC(F)(F)F)nc1-2)c1cn[nH]c1 [compound 106, 1H-Pyrazole-4-carboxylic acid {2-[2-(2,2,2-trifluoro-ethyl)-2H-[1,2,4]triazol-3-yl]-4,5-dihydro-6-oxa-3-thia-1-aza-benzo[e]azulen-8-ylmethyl}-amide]",IC50,[1],5.7 nM
"O=S1(=O)CCN(CCNc2ccc3c(n2)-c2sc(-c4ncnn4-c4ccc(F)cc4F)cc2CCO3)CC1 [compound 109, {2-[2-(2,4-Difluoro-phenyl)-2H-[1,2,4]triazol-3-yl]-4,5-dihydro-6-oxa-1-thia-10-aza-benzo[e]azulen-9-yl}-[2-(1,1-dioxo-1S-thiomorpholin-4-yl)-ethyl]-amine]",IC50,[1],1.3 nM
"CNC(=O)c1ccc2c(c1)OCCc1cc(-c3nc(N)nn3-c3ccc(F)cc3F)sc1-2 [compound 127, 2-(3-amino-1-(2,4-difluorophenyl)-1H-1,2,4-triazol-5-yl)-N-methyl-4,5-dihydrobenzo[b]thieno[2,3-d]oxepine-8-carboxamide]",IC50,[1],0.05 nM
same,EC50,[2],37 nM
same,EC50,[3],147 nM
same,EC50,[4],60 nM
"CC(C)n1ncnc1-c1cc2c(s1)-c1ccc(-c3cccc(C(=O)O)c3)cc1OCC2 [compound 147, 3-(2-(1-isopropyl-1H-1,2,4-triazol-5-yl)-4,5-dihydrobenzo[b]thieno[2,3-d]oxepin-8-yl)benzoic acid]",IC50,[1],21 nM
"Nc1nc(-c2cc3c(s2)-c2ccc(C(=O)NCCO)cc2OCC3)n(-c2ccc(F)cc2F)n1 [compound 151, 2-(3-amino-1-(2,4-difluorophenyl)-1H-1,2,4-triazol-5-yl)-N-(2-hydroxyethyl)-4,5-dihydrobenzo[b]thieno[2,3-d]oxepine-8-carboxamide]",IC50,[1],0.2 nM
"CN(CCC#N)C(=O)c1nc2c(s1)CCOc1cc(-c3cn[nH]c3)ccc1-2 [compound 153, 8-(1H-Pyrazol-4-yl)-4,5-dihydro-6-oxa-3-thia-1-aza-benzo[e]azulene-2-carboxylic acid (2-cyano-ethyl)-methyl-amide]",IC50,[1],58 nM
"CC(C)n1ncnc1-c1nc2c(s1)CCOc1cc(C3CCNCC3)ccc1-2 [compound 375, 2-(2-isopropyl-2H-[1,2,4]triazol-3-yl)-8-piperidin-4-yl-4,5-dihydro-6-oxa-3-thia-1-aza-benzo[e]azulene]",EC50,[2],241 nM
same,EC50,[5],428 nM
same,EC50,[3],225 nM
same,EC50,[6],348 nM
same,EC50,[7],151 nM
same,EC50,[4],1090 nM
same,EC50,[8],739 nM
same,EC50,[9],145 nM
same,EC50,[10],1750 nM
same,EC50,[11],1740 nM
same,EC50,[12],858 nM
same,EC50,[13],1170 nM
same,EC50,[14],226 nM
same,EC50,[15],145 nM
"CC(C)n1nc(N)nc1-c1nc2c(s1)CCOc1cc(C3CN(CCS(C)(=O)=O)C3)ccc1-2 [compound 463, 1-Isopropyl-5-{8-[1-(2-methanesulfonyl-ethyl)-azetidin-3-yl]-4,5-dihydro-6-oxa-3-thia-1-aza-benzo[e]azulen-2-yl}-1H-[1,2,4]triazol-3-ylamine]",EC50,[2],225 nM
same,EC50,[5],638 nM
same,EC50,[3],746 nM
same,EC50,[6],340 nM
same,EC50,[7],103 nM
same,EC50,[4],855 nM
same,EC50,[8],559 nM
same,EC50,[9],185 nM
same,EC50,[10],321 nM
same,EC50,[11],1720 nM
same,EC50,[12],2090 nM
same,EC50,[13],542 nM
same,EC50,[14],972 nM
same,EC50,[15],185 nM
